One data set deals with T1, LexA-hHSF (Homo sapiens, UniProt Q00613).
T1 construct: expressed in transfected cells; the other entry of the earlier key: lexA (P0A7C2, LexA repressor)
T1 sequence (Q00613 with tags, fused parts or gaps): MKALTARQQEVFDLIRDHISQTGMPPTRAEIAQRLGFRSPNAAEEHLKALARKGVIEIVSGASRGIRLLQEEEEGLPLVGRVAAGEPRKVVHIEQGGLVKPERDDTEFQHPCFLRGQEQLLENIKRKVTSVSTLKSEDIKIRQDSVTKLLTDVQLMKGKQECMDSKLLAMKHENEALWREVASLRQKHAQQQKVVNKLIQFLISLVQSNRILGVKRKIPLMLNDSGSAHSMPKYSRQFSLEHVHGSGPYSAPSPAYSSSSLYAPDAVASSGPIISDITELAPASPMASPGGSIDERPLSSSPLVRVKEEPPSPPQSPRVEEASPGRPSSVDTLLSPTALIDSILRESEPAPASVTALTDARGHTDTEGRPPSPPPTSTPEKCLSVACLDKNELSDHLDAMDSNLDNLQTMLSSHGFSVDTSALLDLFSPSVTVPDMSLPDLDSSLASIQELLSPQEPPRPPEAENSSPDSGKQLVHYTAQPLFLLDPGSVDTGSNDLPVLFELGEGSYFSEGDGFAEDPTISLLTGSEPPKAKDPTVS
Kind of data set: Z74 cell-based reporter assay: heat-induced FLuc expression controlled by chimeric LexA-HSF1. The note with it: IHSF 001 tested at 25 μM. From the text:
For screening this sublibrary, a cell-based assay was developed. We opted for a cell-based assay, because a cell-free assay would have had to be a DNA-binding assay. Such an assay would have limited discovery to molecules capable of interfering with the DNA-binding function of HSF1. This was thought to be too narrow a focus, considering that three of the four cavities identified in the HSF1 DNA-binding domain are not near the DNA interaction region. A straightforward cell-based assay, in which a HSF1-responsive gene would be assayed, was considered likely to be over-inclusive. Compounds would be scored as hits that inhibit any factor that is involved in HSF1 activation or prevents HSF1 deactivation. These factors include protein kinases, activators of protein phosphatases, factors affecting HSF1 mRNA stability, HSP90, HDAC6, etc. For developing a more discriminating cell-based assay, advantage was taken of the modular nature of HSF1. […] The cell-based assay developed (see below for the particular format employed) compared transactivation by wild type HSF1 and chimeric HSF1 in cells exposed to an HSF1-activating heat treatment in the presence of a sublibrary compound. A compound was scored as a hit, if it inhibited the activity of wild type HSF1 but not of chimeric HSF1.
The cell-based assay made use of HeLa-derived cell line Z74 that stably contains a gene for chimeric transcription factor LexA-(human) HSF1 under the control of a CMV early promoter, a firefly luciferase (flue) gene driven by a promoter responsive to the latter chimeric transcription factor and a Renilla luciferase (rluc) gene functionally linked to an hsp70b promoter and therefore controlled by endogenous HSF1 (FIG. 1A). As is shown in FIGS. 1B & C, the reporter genes responded similarly to heat dose, i.e., their activation depended on both duration of heat exposure and temperature of the exposure. […] Depletion of HSF1 (and LexA-HSF1) by siRNA supported the notion that this stress regulation is mediated by HSF1 (and LexA-HSF1). Therefore, the Z74 line was well suited for use in a screening assay aimed at discovering molecules that inhibit heat-induced HSF1 activity through interaction with the transcription factor's DNA-binding domain.
The compounds of the afore-mentioned biased sublibrary were screened in cell line Z74 at 12.5 and 25 μM concentrations. Typically, Z74 cultures in 96-well plates were exposed to compound or vehicle for 2 h, heat-treated at 43.0° C. for 30 min, and incubated further for 6 h at 37° C. to allow for accumulation of the luciferases. RLuc and FLuc activities were determined, typically using the Dual-Glo® Luciferase Assay System (Promega Corp., Madison, Wis.), and reading luciferase light counts in a Wallac Microbeta Trilux-1450 Luminometer (PerkinElmer, Waltham, Mass.). IHSF 001 was one of two library compounds that inhibited RLuc expression but not FLuc expression in heat-treated Z74 cells (Table 1; FIG. 2A). Therefore, IHSF 001 is an inhibitor of HSF1 function that specifically acts through the HSF1 DNA-binding domain. […] A corroborating experiment utilized a cell line containing an hsp70b promoter-driven fluc gene. […] IHSF 001 is (E)-ethyl 4-oxo-4-(thiazol-2-ylamino)but-2-enoate. The compound can be obtained from commercial sources (e.g., AKE-PB-90340538, Akos).

A further data set relates to PC-3 tumor xenograft. Description: Human prostate cancer PC-3 xenograft model in athymic mice. It is filed as in vivo. The conditions noted are these: for tumor growth: period of daily administration (7 days). As to the method: Prostate cancer cell line PC-3 was obtained from ATTC and grown in tissue culture under standard conditions. Groups (8 animals) of athymic mice (6-7 weeks old, male, obtained from Harlan) were inoculated subcutaneously on the right flank with 5×10^6 PC-3 cells. Cells were administered as a 1:1 mixture of cells in medium and Matrigel. Treatment was initiated when tumor size reached about 200 mg, at which time the mice were randomized. Of the various groups in the experiment, one group received a daily intravenous dose (via the tail vein) of 2 mg IHSF 115 in an aqueous solution of Kleptose HPB (see Example 2.1) for 7 days, followed by additional dosing with 2 mg IHSF 115 every other day. Another group received a daily dose of 0.8 mg IHSF 115 in an aqueous solution of Kleptose HPB (see Example 2.1) for 7 days, followed by additional dosing with 0.8 mg IHSF 115 every other day. A control group was subjected to same regimen, administering vehicle (Kleptose HPB solution) only. Tumor size and weight were assessed periodically and recorded. Tumor size was estimated using calipers. Calculation: tumor weight (mg)=(a×b^2/2) where ‘b’ is the smallest diameter and ‘a’ is the largest diameter. […] Loss of weight for the period was less than 4%.
A general note: A xenograft is tissue or cells of one species grown in another, often human tumour cells in immunodeficient mice.

The values below come from patent US11597708B2, “Inhibitors of heat shock factors and uses thereof” (HSF Pharmaceuticals SA, priority 2016, dated 2023).

Broadly, the inhibition is the drop in the measured response relative to a control, in per cent. Read a high inhibition as a strong effect. Turning to `CCOC(=O)/C=C/C(=O)Nc1nccs1` [IHSF 001, (E)-ethyl 4-oxo-4-(thiazol-2-ylamino)but-2-enoate], the inhibition at 25 µM at LexA-hHSF (Experiment No. 1) came to 3%; on LexA-hHSF (Experiment No. 2), 0%; at LexA-hHSF (Experiment No. 3), 0%; against LexA-hHSF (Experiment No. 4) it was 0%; against LexA-hHSF (Experiment No. 5), 0%; against LexA-hHSF (Experiment No. 6), 0%. For the same compound, the inhibition at 25 µM amounted to 0% at LexA-hHSF (Experiment No. 7), 0% against LexA-hHSF (Experiment No. 8) and 15% against LexA-hHSF (Experiment No. 9).
As to `CN(C(=O)/C=C/C1=NCCCO1)c1ncc(-c2cccnc2)s1` [IHSF 115, (E)-3-(5,6-Dihydro-4H-[1,3]oxazin-2-yl)-N-methyl-N-(5-pyridin-3-yl-thiazol-2-yl)-acrylamide], the values for the tumor growth entry in the data set with PC-3 tumor xenograft (0.8 mg daily dose in aqueous Kleptose HPB) and with PC-3 tumor xenograft (2 mg daily intravenous in aqueous Kleptose HPB) were “smaller effect” and “substantial (and statistically significant) reduction in tumor growth”, respectively. Also, the toxicity entry in the data set on PC-3 tumor xenograft (athymic mice, intravenous via the tail vein) is listed as “No toxicity was observed, except for some local swelling in the inoculation region”. The “Loss of weight for the period” value in the data set with PC-3 tumor xenograft (period of daily administration) was “less than 4%”.
